{"source": "patent US20230040182A1", "about": "“ARYL HETEROBICYCLIC COMPOUNDS AS Kv1.3 POTASSIUM SHAKER CHANNEL BLOCKERS” (priority 2019, published 2023)", "key": {"hERG channel": {"target": "T1, hERG channel (Homo sapiens, UniProt Q12809)", "T1 construct": "expressed in transfected cells", "T1 sequence (Q12809 whole entry)": "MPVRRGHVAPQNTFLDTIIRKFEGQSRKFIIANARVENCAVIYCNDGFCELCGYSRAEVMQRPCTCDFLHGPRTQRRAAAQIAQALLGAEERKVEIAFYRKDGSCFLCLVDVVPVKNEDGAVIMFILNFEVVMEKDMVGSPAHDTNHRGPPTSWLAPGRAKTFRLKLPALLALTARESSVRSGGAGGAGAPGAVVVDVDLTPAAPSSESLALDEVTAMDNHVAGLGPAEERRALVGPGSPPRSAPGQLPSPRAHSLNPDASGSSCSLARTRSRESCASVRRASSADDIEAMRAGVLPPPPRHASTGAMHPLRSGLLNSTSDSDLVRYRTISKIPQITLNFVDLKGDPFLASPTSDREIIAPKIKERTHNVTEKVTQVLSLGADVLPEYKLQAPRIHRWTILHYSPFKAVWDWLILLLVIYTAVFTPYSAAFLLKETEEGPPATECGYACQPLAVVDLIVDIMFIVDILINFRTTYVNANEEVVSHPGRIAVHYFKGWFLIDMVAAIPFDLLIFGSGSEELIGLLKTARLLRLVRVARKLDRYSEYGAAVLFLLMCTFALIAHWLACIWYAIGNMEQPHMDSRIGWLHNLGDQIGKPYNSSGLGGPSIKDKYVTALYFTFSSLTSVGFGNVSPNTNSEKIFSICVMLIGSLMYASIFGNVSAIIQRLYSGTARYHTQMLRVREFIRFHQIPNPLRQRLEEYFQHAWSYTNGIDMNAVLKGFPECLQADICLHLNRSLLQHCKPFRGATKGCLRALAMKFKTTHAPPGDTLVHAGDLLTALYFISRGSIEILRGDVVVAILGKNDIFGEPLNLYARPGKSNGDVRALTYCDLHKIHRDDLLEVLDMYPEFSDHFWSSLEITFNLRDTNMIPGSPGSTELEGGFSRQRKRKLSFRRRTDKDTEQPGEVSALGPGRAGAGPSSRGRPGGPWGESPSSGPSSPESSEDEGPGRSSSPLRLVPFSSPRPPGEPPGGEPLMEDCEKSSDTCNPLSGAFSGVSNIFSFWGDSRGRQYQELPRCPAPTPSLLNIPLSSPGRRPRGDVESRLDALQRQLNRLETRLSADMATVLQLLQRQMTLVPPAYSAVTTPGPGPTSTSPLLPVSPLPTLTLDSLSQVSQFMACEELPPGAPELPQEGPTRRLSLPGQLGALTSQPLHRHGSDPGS", "assay": "hERG electrophysiology, automated whole-cell patch clamp (Patchliner)", "assay_type": "cell-based", "details": "CHO-K1 cells stably expressing hERG; whole-cell current, Hill fit", "protocol": "Example 10. Evaluation of hERG Activities\nThis assay is used to evaluate the disclosed compounds' inhibition activities against the hERG channel.\nCHO-K1 cells stably expressing hERG were grown in Ham's F-12 Medium with Glutamine containing 10% heat-inactivated FBS, 1% Penicillin/Streptomycin, Hygromycin (100 μg/ml) and G418 (100 μg/ml). Cells were grown in culture flasks at 37° C. in a 5% CO2-humidified incubator.\nThe cells were bathed in an extracellular solution containing 140 mM NaCl, 4 mM KCl, 2 mM CaCl2), 1 mM MgCl2, 5 mM Glucose, 10 mM HEPES; pH adjusted to 7.4 with NaOH; 295-305 mOsm. The internal solution contained 50 mM KCl, 10 mM NaCl, 60 mM KF, 20 mM EGTA, 10 mM HEPES; pH adjusted to 7.2 with KOH; 285 mOsm. All compounds were dissolved in DMSO at 30 mM. Compound stock solutions were freshly diluted with external solution to concentrations of 30 nM, 100 nM, 300 nM, 1 μM, 3 μM, 10 μM, 30 μM and 100 μM. The highest content of DMSO (0.3%) was present in 100 μM.\nThe voltage protocol (see Table B) was designed to simulate voltage changes during a cardiac action potential with a 300 ms depolarization to +20 mV (analogous to the plateau phase of the cardiac action potential), a repolarization for 300 ms to −50 mV (inducing a tail current) and a final step to the holding potential of −80 mV. The pulse frequency was 0.3 Hz. Control (compound-free) and compound pulse trains for each compound concentration applied contained 70 pulses.\nWhole-cell current recordings and compound application were enabled by means of an automated patch clamp platform Patchliner (Nanion). EPC 10 patch clamp amplifier (HEKA) along with Patchmaster software (HEKA Elektronik Dr. Schulze GmbH) was used for data acquisition. Data were sampled at 10 kHz without filtering. Increasing compound concentrations were applied consecutively to the same cell without washouts in between.\nAUC and PEAK values were obtained with Patchmaster (HEKA Elektronik Dr. Schulze GmbH). To determine IC50 the last single pulse in the pulse train corresponding to a given compound concentration was used. Obtained AUC and PEAK values in the presence of compound were normalized to control values in the absence of compound. Using Origin (OridinLab), IC50 was derived from data fit to Hill equation: Icompound/Icontrol=(100−A)/(1+([compound]/IC50)nH)+A, where IC50 is the concentration at which current inhibition is half-maximal, [compound] is the applied compound concentration, A is the fraction of current that is not blocked and nH is the Hill coefficient."}, "Kv1.3 potassium channel": {"target": "T2, Kv1.3 potassium channel (Homo sapiens, UniProt P22001)", "T2 construct": "expressed in transfected cells", "T2 sequence (P22001 whole entry)": "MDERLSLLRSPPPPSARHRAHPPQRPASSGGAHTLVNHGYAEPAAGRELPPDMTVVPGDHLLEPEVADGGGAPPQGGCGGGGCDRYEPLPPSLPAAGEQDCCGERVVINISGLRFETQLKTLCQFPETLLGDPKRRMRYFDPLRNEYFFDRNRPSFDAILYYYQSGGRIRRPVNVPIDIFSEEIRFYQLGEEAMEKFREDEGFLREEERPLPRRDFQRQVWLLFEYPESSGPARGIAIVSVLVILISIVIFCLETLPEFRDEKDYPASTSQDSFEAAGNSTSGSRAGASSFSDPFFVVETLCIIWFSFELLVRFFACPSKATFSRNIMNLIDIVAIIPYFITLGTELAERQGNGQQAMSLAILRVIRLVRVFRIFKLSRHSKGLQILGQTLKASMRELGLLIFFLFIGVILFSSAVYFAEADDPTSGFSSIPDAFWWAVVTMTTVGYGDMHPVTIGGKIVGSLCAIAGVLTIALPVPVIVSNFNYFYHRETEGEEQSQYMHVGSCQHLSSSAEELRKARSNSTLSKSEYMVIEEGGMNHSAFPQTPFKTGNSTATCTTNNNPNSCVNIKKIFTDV", "assay": "Kv1.3 potassium channel blocker activity, automated whole-cell patch clamp (Patchliner)", "assay_type": "cell-based", "details": "CHO-K1 cells stably expressing Kv1.3; whole-cell current, Hill fit", "method_in_brief": "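Stably transfected CHO-K1 cells, whole-cell automated patch clamp: 100 ms pulses from −90 to +40 mV at 0.1 Hz, 20-pulse trains, cumulative concentrations 30 nM–100 μM without washout (≤0.3% DMSO), external pH 7.4. IC50 from Hill fit of last-pulse peak/AUC normalized to compound-free control.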"}}, "note": "pIC50: −log10 of the molar value.", "data": [{"smiles": "O=C1[C@@H]2C[C@H](c3c(O)ccc(Cl)c3Cl)CCN2C(=O)[C@H]2C[C@@H](O)CN12", "note": "[Compound 52, (2R,5aS,7R,11aR)-7-(2,3-dichloro-6-hydroxyphenyl)-2-hydroxyhexahydro-1H-pyrido[1,2-a]pyrrolo[1,2-d]pyrazine-5,11(5aH,11aH)-dione]", "values": [{"measurement": "pIC50", "setting": "hERG channel", "value": "< 4.52"}, {"measurement": "pIC50", "setting": "Kv1.3 potassium channel", "value": "> 6.00"}]}, {"smiles": "O=C1N[C@@H](CO)C(=O)N2CC[C@@H](c3c(O)ccc(Cl)c3Cl)C[C@@H]12", "note": "[Compound 53, (3S,8R,9aS)-8-(2,3-dichloro-6-hydroxyphenyl)-3-(hydroxymethyl)hexahydro-4H-pyrido[1,2-a]pyrazine-1,4(6H)-dione]", "values": [{"measurement": "pIC50", "setting": "hERG channel", "value": "< 4.52"}, {"measurement": "pIC50", "setting": "Kv1.3 potassium channel", "value": "> 6.00"}]}, {"smiles": "C[C@H]1NC(=O)[C@@H]2C[C@H](c3c(O)ccc(Cl)c3Cl)CCN2C1=O", "note": "[Compound 58, (3R,8R,9aS)-8-(2,3-dichloro-6-hydroxyphenyl)-3-methyl-hexahydro-2H-pyrido[1,2-a]pyrazine-1,4-dione]", "values": [{"measurement": "pIC50", "setting": "hERG channel", "value": "< 4.52"}, {"measurement": "pIC50", "setting": "Kv1.3 potassium channel", "value": "> 6.00"}]}, {"smiles": "O=C1N[C@H](CO)C(=O)N2CC[C@@H](c3c(O)cc(Cl)c(Cl)c3Cl)C[C@@H]12", "note": "[Compound 60, (8R,9aS)-3-((3R)-hydroxymethyl)-8-(2,3,4-trichloro-6-hydroxyphenyl)-hexahydro-2H-pyrido[1,2-a]pyrazine-1,4-dione]", "values": [{"measurement": "pIC50", "setting": "hERG channel", "value": "< 4.52"}, {"measurement": "pIC50", "setting": "Kv1.3 potassium channel", "value": "> 6.00"}]}, {"smiles": "O=C1[C@H]2C[C@@H](c3c(O)ccc(Cl)c3Cl)CCN2C(=O)CN1C1CNC1", "note": "[Compound 64, (8S,9aR)-2-(azetidin-3-yl)-8-(2,3-dichloro-6-hydroxyphenyl)-octahydro-1H-pyrido[1,2-a]pyrazine-1,4-dione]", "values": [{"measurement": "pIC50", "setting": "hERG channel", "value": "< 4.52"}, {"measurement": "pIC50", "setting": "Kv1.3 potassium channel", "value": "> 6.00"}]}, {"smiles": "NN1C(=O)[C@@H]2C[C@H](c3c(O)ccc(Cl)c3Cl)CCN2C1=O", "note": "[Compound 68, (7R,8aS)-2-amino-7-(2,3-dichloro-6-hydroxyphenyl)tetrahydro-imidazo[1,5-a]pyridine-1,3(2H,5H)-dione]", "values": [{"measurement": "pIC50", "setting": "hERG channel", "value": "< 4.52"}, {"measurement": "pIC50", "setting": "Kv1.3 potassium channel", "value": "> 6.00"}]}]}
